The assay addresses T1, IP receptor (Homo sapiens, UniProt P43119).
T1 construct: expressed in transfected cells; host or cells: CHO cells stably expressing the IP receptor (CHO-IP)
Briefly: cAMP accumulation in CHO cells stably expressing the IP receptor (CHO-IP), Perkin Elmer AlphaScreen assay. The assay is classed as cell-based. To be noted: agonist activity, 1 hour at room temperature. The procedure: Activity of compounds at the IP receptor (IP receptor) is assessed by measuring cAMP accumulation in CHO cells stably expressing the IP receptor (CHO-IP) using the Perkin Elmer AlphaScreen assay. This technology measures the endogenous production of cAMP, in a non-radioactive luminescence proximity homogenous assay. A biological reaction occurs between streptavidin coated donor beads, biotinylated cAMP and anti-cAMP acceptor beads, bringing the donor and acceptor beads close enough together so that upon excitation a fluorescence signal is produced. On production of endogenous cAMP, competition between the biotinylated cAMP and cellular-derived cAMP causes a reduction in the fluorescent signal. The reduction in signal is proportional to the amount of cAMP being produced, thus it is possible to quantify the amount of cAMP being produced on stimulation with agonist.
Test and reference compounds are prepared at 100× [final] in 100% DMSO, and diluted 1:3 using a Biomek Fx (Beckman Coulter). This is followed by an intermediate dilution to give 5× [final] in assay buffer (HBSS containing 5 mM HEPES, 0.1% (w/v) BSA). 5 μL of 5× [final] test compounds, reference compounds and buffer/DMSO control are then transferred to a 384-well white OptiPlate, containing 20 μL CHO-IP cell suspension (15,000 cells/well, prepared from frozen), and plate is incubated at room temperature for 1 hour. A cAMP standard curve is constructed for each experiment (concentration range of 10000 nM to 0.001 nM, in assay buffer) and 25 μL of each concentration added to the last two columns of the assay plate. The incubation is terminated by the addition of lysis buffer (dH2O; 0.3% (v v^−1) Tween-20) containing 20 units mL^−1 streptavidin coated donor beads and biotinylated cAMP (pre-incubated for 30 minutes) and 20 units mL^−1 anti-cAMP acceptor beads, which are added to the lysis buffer just before addition to the assay plate. The assay plate is then incubated at room temperature in the dark, for 60 minutes with gentle shaking, and read on the Envision plate reader (Perkin Elmer).
The raw data of the reference compounds, test compounds and controls are converted into cAMP concentrations, using the cAMP standard curve, in Graph Pad Prism (Graph Pad Software Inc). EC50 as well as maximal values of the agonist curves are determined using a 4-parameter logistic equation. The % maximum response values of all test compounds are determined using the top of the treprostinil concentration-response curve.

T1 sequence (P43119 whole entry): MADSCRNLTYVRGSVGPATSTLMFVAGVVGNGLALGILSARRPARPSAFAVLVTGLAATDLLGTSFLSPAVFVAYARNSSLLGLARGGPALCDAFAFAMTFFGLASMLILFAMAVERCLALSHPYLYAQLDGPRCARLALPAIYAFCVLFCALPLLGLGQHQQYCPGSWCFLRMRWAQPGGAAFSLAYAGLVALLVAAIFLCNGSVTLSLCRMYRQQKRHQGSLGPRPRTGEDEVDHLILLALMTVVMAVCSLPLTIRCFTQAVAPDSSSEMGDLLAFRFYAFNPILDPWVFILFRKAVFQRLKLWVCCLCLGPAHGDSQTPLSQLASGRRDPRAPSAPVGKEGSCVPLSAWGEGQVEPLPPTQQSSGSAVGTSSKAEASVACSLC

Regarding `Cc1ccc(-c2nc3c(nc2-c2ccc(C)nc2)N(CCCCCCC(=O)O)CCC3)cc1` [Example 7, 7-(3-(6-Methylpyridin-3-yl)-2-p-tolyl-7,8-dihydropyrido[2,3-b]pyrazin-5(6H)-yl)heptanoic acid], the concentration giving a half-maximal response (EC50) came out at 0.2 nM.
The same measure for `O=C(O)CCCCCCN1C(=O)CCc2nc(-c3ccc(Cl)cc3)c(-c3ccc(Cl)cc3)nc21` [Example 7.1, 7-(2,3-Bis(4-chlorophenyl)-6-oxo-7,8-dihydropyrido[2,3-b]pyrazin-5(6H)-yl)heptanoic acid]: 2.3 nM.
The same measure for `Cc1ccc(-c2nc3c(nc2-c2ccc(Cl)cc2)CCC(=O)N3CCCCCCC(=O)O)cc1` [Example 7.2, 7-(2-(4-Chlorophenyl)-6-oxo-3-p-tolyl-7,8-dihydropyrido[2,3-b]pyrazin-5(6H)-yl)heptanoic acid]: 1.2 nM; for `Cc1ccc(-c2nc3c(nc2-c2ccc(Cl)cc2)N(CCCCCCC(=O)O)C(=O)CC3)cc1` [Example 7.3, 7-(3-(4-Chlorophenyl)-6-oxo-2-p-tolyl-7,8-dihydropyrido[2,3-b]pyrazin-5(6H)-yl)heptanoic acid]: 0.3 nM.
On to `Cc1ccc(-c2nc3c(nc2-c2ccc(C)cc2)N(CCCCCCCCC(=O)O)C(=O)CC3)cc1` [Example 8, 9-(6-Oxo-2,3-di-p-tolyl-7,8-dihydropyrido[2,3-b]pyrazin-5(6H)-yl)nonanoic acid], for which the 50% effective concentration (EC50) turned out to be 7 nM.
Compound `Cc1ccc(-c2nc3c(nc2-c2ccc(C)cc2)N(CCCCCCCCC(=O)O)CCC3)cc1` [Example 9.1, 9-(2,3-Di-p-tolyl-7,8-dihydropyrido[2,3-b]pyrazin-5(6H)-yl)nonanoic acid] gave a half-maximal effective concentration (EC50) of 0.6 nM.
Take `Cc1ccc(-c2nc3c(nc2-c2ccc(C)cc2)N(CCCCCC(=O)O)CCC3)cc1` [Example 10, 6-(2,3-Di-p-tolyl-7,8-dihydropyrido[2,3-b]pyrazin-5(6H)-yl)hexanoic acid]: it took 0.3 nM to reach a half-maximal effect (EC50).
Compound `Cc1ccc(-c2nc3c(nc2-c2ccc(C)cc2)N(CCCCCCC(=O)NS(=O)(=O)Cc2ccccc2)CCC3)cc1` [Example 12, N-(Benzylsulfonyl)-7-(2,3-di-p-tolyl-7,8-dihydropyrido[2,3-b]pyrazin-5(6H)-yl)heptanamide] came in with an EC50 of 5.9 nM.
`Cc1ccc(-c2nc3c(nc2-c2ccc(C)cc2)N(CCCCCCC(=O)NCc2ccccc2)CCC3)cc1` [Example 12.1, N-Benzyl-7-(2,3-di-p-tolyl-7,8-dihydropyrido[2,3-b]pyrazin-5(6H)-yl)heptanamide] yielded an EC50 of 40.2 nM.
Compound `Cc1ccc(-c2nc3c(nc2-c2ccc(C)cc2)N(CCCCCCC(=O)NS(=O)(=O)c2ccccc2)CCC3)cc1` [Example 12.2, 7-(2,3-Di-p-tolyl-7,8-dihydropyrido[2,3-b]pyrazin-5(6H)-yl)-N-(phenylsulfonyl) heptanamide] showed an EC50 of 6.4 nM.
The value for `Cc1ccc(-c2nc3c(nc2-c2ccc(C)cc2)N(CCCCCCC(=O)NC(C)C)CCC3)cc1` [Example 12.3, 7-(2,3-Di-p-tolyl-7,8-dihydropyrido[2,3-b]pyrazin-5(6H)-yl)-N-isopropylheptanamide] was 45 nM; that for `CNC(=O)CCCCCCN1CCCc2nc(-c3ccc(C)cc3)c(-c3ccc(C)cc3)nc21` [Example 12.4, 7-(2,3-Di-p-tolyl-7,8-dihydropyrido[2,3-b]pyrazin-5(6H)-yl)-N-methylheptanamide] was 12.1 nM; that for `Cc1ccc(-c2nc3c(nc2-c2ccc(C)cc2)N(CCCCCCC(=O)Nc2ccccc2)CCC3)cc1` [Example 12.5, 7-(2,3-Di-p-tolyl-7,8-dihydropyrido[2,3-b]pyrazin-5(6H)-yl)-N-phenylheptanamide] was 40.7 nM.
The value for `CONC(=O)CCCCCCN1CCCc2nc(-c3ccc(C)cc3)c(-c3ccc(C)cc3)nc21` [Example 12.6, 7-(2,3-Di-p-tolyl-7,8-dihydropyrido[2,3-b]pyrazin-5(6H)-yl)-N-methoxyheptanamide] was 4.7 nM; that for `Cc1ccc(-c2nc3c(nc2-c2ccc(C)cc2)N(CCCCCCC(=O)N(C)C)CCC3)cc1` [Example 12.7, 7-(2,3-Di-p-tolyl-7,8-dihydropyrido[2,3-b]pyrazin-5(6H)-yl)-N,N-dimethylheptanamide] was 75.9 nM.
On to `Cc1ccc(-c2nc3c(nc2-c2ccc(C)cc2)N(CCCCCCC(=O)N(C)O)CCC3)cc1` [Example 12.8, 7-(2,3-Di-p-tolyl-7,8-dihydropyrido[2,3-b]pyrazin-5(6H)-yl)-N-hydroxy-N-methylheptanamide], for which the response was half-maximal at 8 nM (EC50).
The value for `Cc1ccc(-c2nc3c(nc2-c2ccc(C)cc2)N(CCCCCCC(=O)NO)CCC3)cc1` [Example 12.9, 7-(2,3-Di-p-tolyl-7,8-dihydropyrido[2,3-b]pyrazin-5(6H)-yl)-N-hydroxyheptanamide] was 0.4 nM; that for `Cc1ccc(-c2nc3c(nc2-c2ccc(C)cc2)N(CCCCCC(=O)NO)CCC3)cc1` [Example 12.10, 6-(2,3-Di-p-tolyl-7,8-dihydropyrido[2,3-b]pyrazin-5(6H)-yl)-N-hydroxyhexanamide] was 55.6 nM.
The same measure for `Cc1ccc(-c2nc3c(nc2-c2ccc(C)cc2)N(CCCCCCC(=O)NS(C)(=O)=O)CCC3)cc1` [Example 13.4, 7-(2,3-Di-p-tolyl-7,8-dihydropyrido[2,3-b]pyrazin-5(6H)-yl)-N-(methylsulfonyl) heptanamide]: 0.7 nM; for `Cc1ccc(-c2nc3c(nc2-c2ccc(C)cc2)N(CCCCCCC(=O)NS(=O)(=O)C(C)C)CCC3)cc1` [Example 13.5, 7-(2,3-Di-p-tolyl-7,8-dihydropyrido[2,3-b]pyrazin-5(6H)-yl)-N-(isopropylsulfonyl) heptanamide]: 5 nM; for `Cc1ccc(-c2nc3c(nc2-c2ccc(C)cc2)N(CCCCCCC(=O)O)CC(N2CCCCC2)C3)cc1` (centres unmarked) [Example 14]: 2.7 nM.
For the compound `Cc1ccc(-c2nc3c(nc2-c2ccc(C)cc2)C(C)(O)CCN3CCCCCCC(=O)O)cc1` (centres unmarked) [Example 16, 7-(8-Hydroxy-8-methyl-2,3-di-p-tolyl-7,8-dihydropyrido[2,3-b]pyrazin-5(6H)-yl)heptanoic acid], a half-maximal response (EC50) required 0.4 nM.
The value for “(R)-6-(2,3-di-p-tolyl-5,6,7,8-tetrahydropyrido[2,3-b]pyrazin-6-yl)hexanoic acid or (S)-6-(2,3-di-p-tolyl-5,6,7,8-tetrahydropyrido[2,3-b]pyrazin-6-yl)hexanoic acid [1(i)]” was 0.9 nM.

Values taken from patent US9115129B2, “Substituted pyrido[2,3-B]pyrazines as IP receptor agonists” (Novartis AG, priority 2012, dated 2015).
